In patent publication US10300064B2, “Organic compounds” (INTRA-CELLULAR THERAPIES, INC., priority 2014, dated 2019):
pIC50: −log10 of the molar value. One block for each compound: values may come before it.

What was measured:
r-hPDE2A = molecular target: T1, r-hPDE2A (Homo sapiens, UniProt O00408); test: Measurement of PDE2 inhibition in vitro (IMAP fluorescence polarization, FL-cAMP substrate); format: biochemical; details: 1 μM cGMP
T1 construct: host or cells: HEK293 cells, transient transfection; soluble cytosolic fraction used
T1 sequence (O00408 whole entry): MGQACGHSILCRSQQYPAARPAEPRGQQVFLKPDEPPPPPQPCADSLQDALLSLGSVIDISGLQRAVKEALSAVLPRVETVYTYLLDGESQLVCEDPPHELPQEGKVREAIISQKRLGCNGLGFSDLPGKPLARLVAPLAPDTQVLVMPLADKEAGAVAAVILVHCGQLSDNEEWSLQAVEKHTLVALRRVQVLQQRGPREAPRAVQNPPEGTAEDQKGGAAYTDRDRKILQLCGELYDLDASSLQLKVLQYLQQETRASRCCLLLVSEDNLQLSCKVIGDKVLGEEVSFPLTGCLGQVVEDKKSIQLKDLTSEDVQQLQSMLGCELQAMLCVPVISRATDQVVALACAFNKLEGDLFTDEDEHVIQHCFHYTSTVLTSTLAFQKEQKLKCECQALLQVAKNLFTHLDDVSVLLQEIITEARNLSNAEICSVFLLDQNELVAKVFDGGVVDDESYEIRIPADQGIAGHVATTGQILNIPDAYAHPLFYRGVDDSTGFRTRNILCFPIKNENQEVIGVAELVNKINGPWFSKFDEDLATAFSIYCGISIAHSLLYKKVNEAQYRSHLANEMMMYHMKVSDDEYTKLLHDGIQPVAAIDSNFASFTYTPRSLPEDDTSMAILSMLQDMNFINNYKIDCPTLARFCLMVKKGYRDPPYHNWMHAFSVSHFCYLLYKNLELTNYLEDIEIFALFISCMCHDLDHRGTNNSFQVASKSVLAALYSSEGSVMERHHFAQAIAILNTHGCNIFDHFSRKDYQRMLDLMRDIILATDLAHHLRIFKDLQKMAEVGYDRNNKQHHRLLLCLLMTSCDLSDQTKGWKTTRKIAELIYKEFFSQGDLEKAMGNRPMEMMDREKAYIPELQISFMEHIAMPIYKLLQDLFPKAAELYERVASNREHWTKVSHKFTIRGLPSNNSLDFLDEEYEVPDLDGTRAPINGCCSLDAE
Protocol: Measurement of PDE2 Inhibition In Vitro
r-hPDE2A (Accession No. NM_002599, Homo sapiens phosphodiesterase 2A, cGMP-stimulated, transcript variant 1) A mammalian expression cloning vector with recombinant cDNA copy of the gene is purchased from Origene. Protein is expressed via transient transfection of HEK293 cells. The cells are harvested at 48 hours after transfection, washed once with TBS buffer (50 mM Tris-HCl, pH 7.5, 150 mM NaCl), then lysed by sonication in cold homogenization buffer (50 mM Tris-HCl, pH 7.5, 5 mM MgCl2, lx protease inhibitor cocktail). The homogenate is centrifuged for […] at 15,000 g at 4° C. to obtain the soluble cytosolic fraction. The protein concentration of the cytosol is determined using BCA Protein Assay Kit (Pierce) with bovine serum albumin as a standard.
PDE2A is assayed with FL-cAMP as substrate. An enzyme titration is first performed to determine the working concentration of PDE. The concentration of the enzyme giving activity of 100 ΔmP in the absence of inhibitor is deemed an appropriate working concentration for PDE.
PDE enzyme is diluted in a standard reaction buffer (10 mM Tris-HCl pH 7.2, 10 mM MgCl2, 0.1% BSA, 0.05% NaN3) according to the titration curve. For PDE2 assay the reaction buffer is supplemented with 1 μM cGMP to fully activate the enzyme. 99 μl of diluted enzyme solution is added into each well in a flat bottom 96-well polystyrene plate and then 1 μl of test compound dissolved in 100% DMSO is added. The compounds are mixed and pre-incubated with the enzyme for 10 min at room temperature.
The FL-cNMP conversion reaction is initiated by addition of substrate (45 nM final). Enzyme and inhibitor mix (16 μl) and substrate solution (4 μl of 0.225 μM) are combined in a 384-well microtiter plate. The reaction is incubated in the dark at room temperature for 15 min. The reaction is halted by addition of 60 μl of binding reagent (1:400 dilution of IMAP beads in binding buffer supplemented with 1:1800 dilution of antifoam) to each well of the 384-well plate. The plate is incubated at room temperature for 1 hour to allow IMAP binding to proceed to completion, and then placed in an Envision multimode microplate reader (PerkinElmer, Shelton, Conn.) to measure the fluorescence polarization (Δmp).
A decrease in cAMP concentration, measured as decreased Amp, is indicative of inhibition of PDE activity. […] IC50 values are estimated using nonlinear regression software, fitting a four-parameter one-site dose-response model (XLFit; IDBS, Cambridge, Mass.). […]
The total fluorescence intensity of each sample well is measured to calculate the average and standard deviation. If the total fluorescence intensity of any sample well is not within the range of Average±3SD, the mp value of that particular well is discarded. […]

[1] = Pharmacokinetic study in mice (plasma and brain availability); format: in vivo; details: single oral dose 10 mg/kg PO, 0.25-4h, FIG. 1
Protocol: FIG. 1 illustrats the plasma and brain levels in mice dosed with 10 mg/kg P.O. of the compound of Example 1 over time.
Mice are given a single oral dose of the compound to be tested (10 mg/kg, PO) and plasma and brain availability are measured (0.25-4h) using HPLC and LC-MS using methods analogous to those described in Zhao et al., J. Chromatogr. B. Analyt. Technol. Biomed. Life Sci. (2005) 819(1):73-80 and Appels, N. M., et al., Rapid Commun. Mass Spec. 2005. 19(15): p. 2187-92.

Wistar rats = test: Object recognition task, memory performance of Wistar rats; format: in vivo, rat; details: male Wistar rats, oral, 2 h before learning
Protocol: The Effects of Treatment with PDE2 Inhibitors on Memory Performance of Wistar Rats in the Object Recognition Task
The memory-enhancing effects of the compound of Example 1 are tested in an animal model of cognition, the object recognition task. See, Ennaceur, A., Delacour, J., 1988. A new one-trial test for neurobiological studies of memory in rats. 1: Behavioral data. Behav. Brain Res. 31, 47-59. Rats remember which object they have explored in a previous trial when they are tested one hour later. However, when a 24 h inter-trial interval is used, they are not able to remember which object was presented to them in the first trial. It is tested whether the compound of Example 1 would attenuate this time-induced object memory deficit, when given 2 h before the first trial. The compounds are given to 2-3-months-old male Wistar rats.
The compound of Example 1 is injected orally (2 ml/kg) 2 h before learning, at doses of 0, 0.3, 1, 3 and 10 mg/kg.

PDE1 = test: Selectivity for PDE2 over PDE1; format: biochemical
Protocol: (§1) Using the IMAP procedure described or similarly described above, we screened a proprietary PDE-focused compound library to identify novel compounds with nanomolar PDE2 inhibitory activities. […] The compounds are moreover selective for PDE2; the compound of Example 4 is tested and shown to be selective for PDE2 over PDE1, PDE3, PDE4D, PDE5, PDE6, PDE7B, PDE8A, PDE9A, PDE10A and PDE11A by greater than 20-fold.

PDE3 = test: Selectivity for PDE2 over PDE3; format: biochemical
Protocol: as §1

PDE4D = PDE4D (Homo sapiens, UniProt Q08499); test: Selectivity for PDE2 over PDE4D; format: biochemical
Chain of PDE4D (Q08499 whole entry, species assumed): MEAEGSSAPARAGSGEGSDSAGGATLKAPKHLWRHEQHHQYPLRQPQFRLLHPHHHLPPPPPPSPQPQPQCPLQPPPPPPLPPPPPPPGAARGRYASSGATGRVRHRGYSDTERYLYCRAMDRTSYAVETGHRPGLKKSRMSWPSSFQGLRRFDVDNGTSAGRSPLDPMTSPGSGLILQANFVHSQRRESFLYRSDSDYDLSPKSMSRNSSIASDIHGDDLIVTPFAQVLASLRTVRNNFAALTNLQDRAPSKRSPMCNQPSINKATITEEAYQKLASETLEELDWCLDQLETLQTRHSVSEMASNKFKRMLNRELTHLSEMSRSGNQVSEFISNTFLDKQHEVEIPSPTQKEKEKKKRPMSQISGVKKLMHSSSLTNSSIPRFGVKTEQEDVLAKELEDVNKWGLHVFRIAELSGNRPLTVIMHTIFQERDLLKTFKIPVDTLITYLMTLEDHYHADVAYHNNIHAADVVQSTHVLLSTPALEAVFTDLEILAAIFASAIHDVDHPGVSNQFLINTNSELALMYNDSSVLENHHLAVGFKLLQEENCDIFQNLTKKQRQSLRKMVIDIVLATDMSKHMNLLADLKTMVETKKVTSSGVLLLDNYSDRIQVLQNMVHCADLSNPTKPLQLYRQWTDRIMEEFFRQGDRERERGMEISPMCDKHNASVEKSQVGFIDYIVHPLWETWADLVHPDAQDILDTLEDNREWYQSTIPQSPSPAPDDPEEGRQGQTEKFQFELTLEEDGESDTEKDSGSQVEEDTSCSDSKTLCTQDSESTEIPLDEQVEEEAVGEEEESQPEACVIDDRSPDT
Protocol: as §1

PDE5 = PDE5 (Homo sapiens, UniProt O76074); test: Selectivity for PDE2 over PDE5; format: biochemical
Protocol: as §1

PDE6 = test: Selectivity for PDE2 over PDE6; format: biochemical
Protocol: as §1

PDE7B = PDE7B (Homo sapiens, UniProt Q9NP56); test: Selectivity for PDE2 over PDE7B; format: biochemical
Chain of PDE7B (Q9NP56 whole entry, species assumed): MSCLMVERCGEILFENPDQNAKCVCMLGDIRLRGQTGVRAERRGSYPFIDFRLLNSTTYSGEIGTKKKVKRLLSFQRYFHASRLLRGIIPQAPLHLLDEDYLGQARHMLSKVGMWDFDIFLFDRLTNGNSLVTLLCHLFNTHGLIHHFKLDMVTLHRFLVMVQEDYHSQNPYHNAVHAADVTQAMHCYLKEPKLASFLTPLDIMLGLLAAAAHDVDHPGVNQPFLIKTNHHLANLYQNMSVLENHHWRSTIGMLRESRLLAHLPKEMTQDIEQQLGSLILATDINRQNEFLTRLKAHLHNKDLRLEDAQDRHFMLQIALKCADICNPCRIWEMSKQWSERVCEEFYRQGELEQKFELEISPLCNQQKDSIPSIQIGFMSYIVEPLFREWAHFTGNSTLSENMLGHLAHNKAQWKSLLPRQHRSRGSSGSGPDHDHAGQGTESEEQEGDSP
Protocol: as §1

PDE8A = PDE8A (Homo sapiens, UniProt O60658); test: Selectivity for PDE2 over PDE8A; format: biochemical
Chain of PDE8A (O60658 whole entry, species assumed): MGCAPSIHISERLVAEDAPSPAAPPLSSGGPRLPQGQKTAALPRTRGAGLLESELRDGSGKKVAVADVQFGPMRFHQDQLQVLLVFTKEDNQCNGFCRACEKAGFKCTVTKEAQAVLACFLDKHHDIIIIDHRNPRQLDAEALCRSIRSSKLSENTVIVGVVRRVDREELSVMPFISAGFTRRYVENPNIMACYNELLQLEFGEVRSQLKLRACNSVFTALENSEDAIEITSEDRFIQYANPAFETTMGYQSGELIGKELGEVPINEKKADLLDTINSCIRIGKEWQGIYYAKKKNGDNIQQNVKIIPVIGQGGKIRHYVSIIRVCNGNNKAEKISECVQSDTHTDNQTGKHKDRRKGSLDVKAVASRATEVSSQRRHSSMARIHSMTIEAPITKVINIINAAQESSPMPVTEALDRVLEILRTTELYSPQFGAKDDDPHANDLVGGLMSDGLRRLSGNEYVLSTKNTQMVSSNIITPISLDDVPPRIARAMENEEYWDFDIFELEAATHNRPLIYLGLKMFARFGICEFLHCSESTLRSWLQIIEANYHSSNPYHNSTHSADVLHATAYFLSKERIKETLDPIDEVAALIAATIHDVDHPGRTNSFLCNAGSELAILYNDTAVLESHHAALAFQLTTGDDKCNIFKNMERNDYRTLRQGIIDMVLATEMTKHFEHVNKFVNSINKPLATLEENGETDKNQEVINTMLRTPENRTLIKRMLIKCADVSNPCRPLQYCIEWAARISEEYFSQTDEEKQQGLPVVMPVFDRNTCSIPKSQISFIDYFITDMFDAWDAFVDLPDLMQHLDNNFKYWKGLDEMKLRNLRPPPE
Protocol: as §1

PDE9A = PDE9A (Homo sapiens, UniProt O76083); test: Selectivity for PDE2 over PDE9A; format: biochemical
Chain of PDE9A (O76083 whole entry, species assumed): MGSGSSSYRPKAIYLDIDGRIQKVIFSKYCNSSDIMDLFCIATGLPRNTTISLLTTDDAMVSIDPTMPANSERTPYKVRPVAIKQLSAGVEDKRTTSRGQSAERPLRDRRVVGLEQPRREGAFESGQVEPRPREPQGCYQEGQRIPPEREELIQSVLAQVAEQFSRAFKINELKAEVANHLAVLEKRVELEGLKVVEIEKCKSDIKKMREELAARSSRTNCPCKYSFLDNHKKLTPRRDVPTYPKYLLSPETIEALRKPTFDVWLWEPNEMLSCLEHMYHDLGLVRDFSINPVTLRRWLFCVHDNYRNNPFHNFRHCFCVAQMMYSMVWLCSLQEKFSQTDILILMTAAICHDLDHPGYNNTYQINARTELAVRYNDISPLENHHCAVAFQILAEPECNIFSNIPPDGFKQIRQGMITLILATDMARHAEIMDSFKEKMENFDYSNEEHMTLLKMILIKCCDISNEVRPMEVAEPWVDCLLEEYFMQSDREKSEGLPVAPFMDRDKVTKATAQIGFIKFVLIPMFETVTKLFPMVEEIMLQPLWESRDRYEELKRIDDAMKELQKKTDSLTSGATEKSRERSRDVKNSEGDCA
Protocol: as §1

PDE10A = PDE10A (Homo sapiens, UniProt Q9Y233); test: Selectivity for PDE2 over PDE10A; format: biochemical
Chain of PDE10A (Q9Y233 whole entry, species assumed): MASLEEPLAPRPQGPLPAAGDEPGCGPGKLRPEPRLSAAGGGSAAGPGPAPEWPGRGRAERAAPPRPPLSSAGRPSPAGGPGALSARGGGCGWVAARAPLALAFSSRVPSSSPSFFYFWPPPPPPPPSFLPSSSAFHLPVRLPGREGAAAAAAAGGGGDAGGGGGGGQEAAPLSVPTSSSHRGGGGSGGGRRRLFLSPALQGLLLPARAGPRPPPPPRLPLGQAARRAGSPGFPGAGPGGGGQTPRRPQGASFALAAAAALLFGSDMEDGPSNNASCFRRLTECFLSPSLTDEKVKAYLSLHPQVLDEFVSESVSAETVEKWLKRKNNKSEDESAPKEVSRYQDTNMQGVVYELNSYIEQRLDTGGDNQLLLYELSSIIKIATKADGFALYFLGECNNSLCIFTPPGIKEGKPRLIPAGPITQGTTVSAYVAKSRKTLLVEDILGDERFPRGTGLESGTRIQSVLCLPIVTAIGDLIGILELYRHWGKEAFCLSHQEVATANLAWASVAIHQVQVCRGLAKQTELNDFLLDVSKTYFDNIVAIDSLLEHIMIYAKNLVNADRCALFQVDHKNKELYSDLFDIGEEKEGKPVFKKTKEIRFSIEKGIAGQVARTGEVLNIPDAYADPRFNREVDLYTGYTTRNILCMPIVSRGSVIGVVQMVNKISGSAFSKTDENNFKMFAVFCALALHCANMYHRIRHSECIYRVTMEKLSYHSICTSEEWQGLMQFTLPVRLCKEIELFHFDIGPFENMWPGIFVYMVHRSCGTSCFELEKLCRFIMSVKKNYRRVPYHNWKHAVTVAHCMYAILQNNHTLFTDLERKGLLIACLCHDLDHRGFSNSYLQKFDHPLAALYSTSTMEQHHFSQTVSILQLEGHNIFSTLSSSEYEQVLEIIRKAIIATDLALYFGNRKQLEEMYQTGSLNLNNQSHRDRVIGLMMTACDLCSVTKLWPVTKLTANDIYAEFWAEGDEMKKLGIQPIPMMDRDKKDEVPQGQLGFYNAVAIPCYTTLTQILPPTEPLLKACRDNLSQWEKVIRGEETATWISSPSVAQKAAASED
Protocol: as §1

PDE11A = PDE11A (Homo sapiens, UniProt Q9HCR9); test: Selectivity for PDE2 over PDE11A; format: biochemical
Protocol: as §1

pIC50 (r-hPDE2A): 7.64
brain access (plasma and brain availability) [1]: good brain access
Structure (SMILES): Cc1nn(-c2cnn(C)c2-c2ccc(C(F)(F)F)cc2)c2c(N3CCC3)ncnc12 [Example 1, 7-(Azetidin-1-yl)-3-methyl-1-(1-methyl-5-(4-(trifluoromethyl)phenyl)-1H-pyrazol-4-yl)-1H-pyrazolo[4,3-d]pyrimidine]
memory improvement (object memory, 24 h inter-trial interval) (Wistar rats; 0.3 mg/kg): intermediate memory improvement
time-dependent forgetting (object memory, 24 h inter-trial interval) (Wistar rats; 1.0 mg/kg): completely prevent the time-dependent forgetting
memory improvement (object memory, 24 h inter-trial interval) (Wistar rats; 3.0 mg/kg): intermediate memory improvement

pIC50 (r-hPDE2A): 7.04
Structure (SMILES): COc1ccc(-c2c(-n3nc(C)c4ncnc(N5CCC5)c43)cnn2C)c(C)c1 [Example 2, 7-(Azetidin-1-yl)-1-(5-(4-methoxy-2-methylphenyl)-1-methyl-1H-pyrazol-4-yl)-3-methyl-1H-pyrazolo[4,3-d]pyrimidine]

pIC50 (r-hPDE2A): 8.02
Structure (SMILES): Cc1nn(-c2cnn(C)c2-c2ccc(C3CC3)cc2)c2c(N3CCC3)ncnc12 [Example 3, 7-(Azetidin-1-yl)-1-(5-(4-cyclopropylphenyl)-1-methyl-1H-pyrazol-4-yl)-3-methyl-1H-pyrazolo[4,3-d]pyrimidine]

pIC50 (r-hPDE2A): 7.73
selectivity for PDE2 over PDE4D (PDE4D): greater than 20 fold
selectivity for PDE2 over PDE5 (PDE5): greater than 20 fold
selectivity for PDE2 over PDE7B (PDE7B): greater than 20 fold
selectivity for PDE2 over PDE8A (PDE8A): greater than 20 fold
selectivity for PDE2 over PDE9A (PDE9A): greater than 20 fold
selectivity for PDE2 over PDE10A (PDE10A): greater than 20 fold
selectivity for PDE2 over PDE11A (PDE11A): greater than 20 fold
Structure (SMILES): CCc1ccc(-c2c(-n3nc(C)c4ncnc(N5CCC5)c43)cnn2C)cc1 [Example 4, 7-(Azetidin-1-yl)-1-(5-(4-ethylphenyl)-1-methyl-1H-pyrazol-4-yl)-3-methyl-1H-pyrazolo[4,3-d]pyrimidine]
selectivity for PDE2 over PDE1 (PDE1): greater than 20 fold
selectivity for PDE2 over PDE3 (PDE3): greater than 20 fold
selectivity for PDE2 over PDE6 (PDE6): greater than 20 fold
